Laboratory results from ChEMBL document CHEMBL4665653, “VU6005806/AZN-00016130, an advanced M positive allosteric modulator (PAM) profiled as a potential preclinical development candidate” (Bioorg Med Chem Lett, 2019).
Active and inactive are the calls of the source. The calls are words filed in the database; no cut-off is given here.

Assays:
[1] = target: Muscarinic acetylcholine receptor M3 (Homo sapiens, UniProt P20309); assay: Positive allosteric modulation of human M3 receptor
[2] = target: T1, Muscarinic acetylcholine receptor M5 (Homo sapiens) (UniProt P08912); assay: Positive allosteric modulation of human M5 receptor
T1 sequence (whole entry): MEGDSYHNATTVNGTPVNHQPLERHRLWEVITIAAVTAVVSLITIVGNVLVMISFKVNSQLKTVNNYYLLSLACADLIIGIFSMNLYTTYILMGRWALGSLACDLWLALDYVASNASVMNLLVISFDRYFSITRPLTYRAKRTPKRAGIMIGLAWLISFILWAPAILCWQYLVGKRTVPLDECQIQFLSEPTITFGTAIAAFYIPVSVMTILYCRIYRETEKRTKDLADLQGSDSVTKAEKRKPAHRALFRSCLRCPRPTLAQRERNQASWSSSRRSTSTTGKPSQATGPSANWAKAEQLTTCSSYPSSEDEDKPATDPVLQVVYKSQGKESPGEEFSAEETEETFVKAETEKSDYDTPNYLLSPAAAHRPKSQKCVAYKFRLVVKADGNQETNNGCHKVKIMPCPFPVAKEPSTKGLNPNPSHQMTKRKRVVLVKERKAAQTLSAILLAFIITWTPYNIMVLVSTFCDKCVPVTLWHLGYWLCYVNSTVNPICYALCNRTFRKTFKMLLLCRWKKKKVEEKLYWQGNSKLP

[3] = target: T2, Muscarinic acetylcholine receptor M1 (Homo sapiens) (UniProt P11229); assay: Positive allosteric modulation of human M1 receptor
T2 sequence (whole entry): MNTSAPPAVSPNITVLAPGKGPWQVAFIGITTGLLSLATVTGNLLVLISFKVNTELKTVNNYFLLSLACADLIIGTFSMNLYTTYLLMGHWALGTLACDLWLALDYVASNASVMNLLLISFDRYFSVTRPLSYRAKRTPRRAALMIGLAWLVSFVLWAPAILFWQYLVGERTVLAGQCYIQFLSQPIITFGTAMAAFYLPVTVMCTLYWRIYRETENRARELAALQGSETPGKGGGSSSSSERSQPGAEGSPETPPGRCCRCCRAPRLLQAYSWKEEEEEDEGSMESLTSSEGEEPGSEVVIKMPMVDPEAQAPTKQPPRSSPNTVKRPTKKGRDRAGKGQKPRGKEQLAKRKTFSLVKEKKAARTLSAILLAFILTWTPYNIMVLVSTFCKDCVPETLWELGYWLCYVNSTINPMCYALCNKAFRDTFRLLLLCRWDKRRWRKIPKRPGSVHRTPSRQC

[4] = target: T3, Muscarinic acetylcholine receptor M4 (Homo sapiens) (UniProt P08173); assay: Positive allosteric modulation of human M4 receptor/Gqi5 in presence of EC20 acetylcholine by calcium mobilization assay relative to acetylcholine; format: functional; conditions: filed as positive allosteric modulator
T3 sequence (whole entry): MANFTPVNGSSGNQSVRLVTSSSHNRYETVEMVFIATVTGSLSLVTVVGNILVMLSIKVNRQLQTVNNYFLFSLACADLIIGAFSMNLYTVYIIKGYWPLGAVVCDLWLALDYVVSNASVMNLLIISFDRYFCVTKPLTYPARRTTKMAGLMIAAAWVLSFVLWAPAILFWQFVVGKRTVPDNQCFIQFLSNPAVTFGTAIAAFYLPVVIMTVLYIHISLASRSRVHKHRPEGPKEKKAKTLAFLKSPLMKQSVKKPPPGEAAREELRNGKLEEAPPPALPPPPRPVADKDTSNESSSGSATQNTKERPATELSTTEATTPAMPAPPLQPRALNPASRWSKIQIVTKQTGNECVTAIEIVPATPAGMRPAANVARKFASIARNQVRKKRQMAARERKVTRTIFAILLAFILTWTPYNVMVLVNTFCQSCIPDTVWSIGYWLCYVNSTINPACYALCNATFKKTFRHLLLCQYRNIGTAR

[5] = target: T4, Muscarinic acetylcholine receptor M2 (Homo sapiens, UniProt P08172); assay: Positive allosteric modulation of human M2 receptor/Gqi5 in presence of EC20 acetylcholine by calcium mobilization assay
T4 sequence (P08172 whole entry): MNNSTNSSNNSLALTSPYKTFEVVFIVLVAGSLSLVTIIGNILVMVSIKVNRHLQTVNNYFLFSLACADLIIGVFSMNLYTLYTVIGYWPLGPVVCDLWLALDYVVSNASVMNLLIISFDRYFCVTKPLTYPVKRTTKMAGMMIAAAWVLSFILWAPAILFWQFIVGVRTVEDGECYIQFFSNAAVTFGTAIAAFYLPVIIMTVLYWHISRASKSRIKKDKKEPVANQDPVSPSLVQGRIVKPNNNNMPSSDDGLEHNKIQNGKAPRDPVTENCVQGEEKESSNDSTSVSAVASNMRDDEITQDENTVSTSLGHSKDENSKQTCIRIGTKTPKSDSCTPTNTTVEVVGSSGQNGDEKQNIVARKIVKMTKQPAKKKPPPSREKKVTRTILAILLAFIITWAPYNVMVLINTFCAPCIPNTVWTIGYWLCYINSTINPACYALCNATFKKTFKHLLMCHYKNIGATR

[6] = target: T5, Muscarinic acetylcholine receptor M4 (Homo sapiens, UniProt P08173); assay: Positive allosteric modulation of human M4 receptor/Gqi5 in presence of EC20 acetylcholine by calcium mobilization assay; format: functional
T5 sequence (P08173 whole entry): T3 sequence (whole entry)

[7] = target: T4, Muscarinic acetylcholine receptor M2; assay: Positive allosteric modulation of human M2 receptor/Gqi5 in presence of EC20 acetylcholine by calcium mobilization assay relative to acetylcholine; conditions: read-out: %max
[8] = Fraction unbound in rat plasma; format: ADME, cell-free
[9] = Fraction unbound in rat brain; format: ADME, tissue-based
[10] = Fraction unbound in human plasma; format: ADME, cell-free
[11] = Hepatic clearance in human; format: ADME
[12] = Brain to plasma permeability coefficient, Kp in Sprague-Dawley rat at 0.1 to 0.2 mg/kg, iv measured after 0.25 hrs; format: ADME, organism-based; conditions: dose 0.1-0.2 mg/kg
[13] = Hepatic clearance in rat; format: ADME; conditions: in vivo
[14] = Unbound brain-to-plasma concentration ratio in Sprague-Dawley rat at 0.1 to 0.2 mg/kg, iv measured after 0.25 hrs; format: ADME, organism-based; conditions: dose 0.1-0.2 mg/kg, read-out: K(p,uu,brain)

Sequence of Muscarinic acetylcholine receptor M3 (P20309 whole entry, looked up): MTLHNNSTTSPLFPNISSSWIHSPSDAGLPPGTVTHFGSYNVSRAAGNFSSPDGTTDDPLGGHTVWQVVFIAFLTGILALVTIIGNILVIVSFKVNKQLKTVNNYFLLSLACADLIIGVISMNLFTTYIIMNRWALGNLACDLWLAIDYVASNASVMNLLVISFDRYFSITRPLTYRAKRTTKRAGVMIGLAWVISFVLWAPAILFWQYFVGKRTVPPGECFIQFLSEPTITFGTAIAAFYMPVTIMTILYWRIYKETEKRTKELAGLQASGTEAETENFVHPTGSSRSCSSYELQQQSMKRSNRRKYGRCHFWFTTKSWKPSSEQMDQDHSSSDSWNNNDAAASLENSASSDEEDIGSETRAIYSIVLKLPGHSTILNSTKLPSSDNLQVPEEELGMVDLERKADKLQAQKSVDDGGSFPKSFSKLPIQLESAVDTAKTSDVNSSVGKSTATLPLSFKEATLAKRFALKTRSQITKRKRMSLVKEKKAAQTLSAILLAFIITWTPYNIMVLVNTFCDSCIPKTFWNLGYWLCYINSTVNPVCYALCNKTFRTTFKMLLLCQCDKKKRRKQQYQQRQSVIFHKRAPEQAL

| Compound | Activity [1] | Activity [2] | Activity [3] | %max [4] | EC50 [5] | EC50 [6] | Emax [7] | fraction unbound [8] | fraction unbound [9] | fraction unbound [10] | CLH [11] | Kp at 0.25 h [12] | CLH [13] | Kp uu at 0.25 h [14] |
| --- | --- | --- | --- | --- | --- | --- | --- | --- | --- | --- | --- | --- | --- | --- |
| Cc1nc(Cl)c(C)c(N2CC(NC(=O)c3sc4nnc(Cl)c(C)c4c3N)C2)n1 | inactive | inactive | inactive | 84% | > 30000 nM | 100 nM |  |  |  |  |  |  |  |  |
| Cc1c(Cl)nnc2sc(C(=O)NC3CN(c4cnc(Cl)cn4)C3)c(N)c12 | inactive | inactive | inactive | 99% | 400 nM | 140 nM | 40% |  |  |  |  |  |  |  |
| Cc1c(CF)nnc2sc(C(=O)NC3CN(c4ncc(C(F)(F)F)cn4)C3)c(N)c12 | inactive | inactive | inactive | 73% | > 30000 nM | 170 nM |  | 0.034 | 0.085 | 0.042 | 10.8 mL/min/kg | 0.06 | 23.7 mL/min/kg | 0.15 |
| COCCOc1nnc2sc(C(=O)NC3CN(c4ncc(C(F)(F)F)cn4)C3)c(N)c2c1C | inactive | inactive | inactive | 48% | > 30000 nM | 180 nM |  |  |  |  |  |  |  |  |
| Cc1c(Cl)nnc2sc(C(=O)NC3CN(c4cc(Cl)ncc4Cl)C3)c(N)c12 | inactive | inactive | inactive | 59% | > 30000 nM | 30 nM |  |  |  |  |  |  |  |  |
| Cc1c(Cl)nnc2sc(C(=O)NC3Cc4ccccc4C3)c(N)c12 |  |  |  | 73% |  | 10 nM |  |  |  |  |  |  |  |  |
| Cc1c(Cl)nnc2sc(C(=O)NC3CN(c4nnc(CC(C)C)o4)C3)c(N)c12 | inactive | inactive | inactive | 47% | > 10000 nM | 230 nM | 62% |  |  |  |  |  |  |  |
| Cc1c(CN(C)C)nnc2sc(C(=O)NC3CN(c4ncc(C(F)(F)F)cn4)C3)c(N)c12 | inactive | inactive | inactive |  | > 30000 nM | > 30000 nM |  |  |  |  |  |  |  |  |
| Cc1nnc2sc(C(=O)NC3Cc4ccccc4C3)c(N)c2c1C |  |  |  | 79% |  | 20 nM |  |  |  |  |  |  |  |  |
| Cc1c(C(C)C)nnc2sc(C(=O)NC3CN(c4ncc(C(F)(F)F)cn4)C3)c(N)c12 | inactive | inactive | inactive | 56% | > 30000 nM | 540 nM |  |  |  |  |  |  |  |  |
| Cc1c(Cl)nnc2sc(C(=O)NC3CN(c4cc(C(F)(F)F)ncc4Cl)C3)c(N)c12 | inactive | inactive | inactive | 90% | > 10000 nM | 20 nM | 51% | 0.019 | 0.01 | 0.019 | 14.7 mL/min/kg | 0.31 | 31.7 mL/min/kg | 0.16 |
| CCc1nnc2sc(C(=O)NC3CN(c4ncc(C(F)(F)F)cn4)C3)c(N)c2c1C | inactive | inactive | inactive | 77% | > 30000 nM | 510 nM |  |  |  |  |  |  |  |  |
| Cc1c(Cl)nnc2sc(C(=O)NC3CN(c4ncncc4C#N)C3)c(N)c12 | inactive | inactive | inactive | 65% | > 30000 nM | 220 nM |  |  |  |  |  |  |  |  |
| Cc1cc(C2CC2)ncc1N1CC(NC(=O)c2sc3nnc(Cl)c(C)c3c2N)C1 | inactive | inactive | inactive | 90% | 870 nM | 150 nM | 33% |  |  |  |  |  |  |  |
| Cc1c(Cl)nnc2sc(C(=O)NC3CN(c4cccnc4)C3)c(N)c12 | inactive | inactive | inactive | 86% | 1100 nM | 20 nM | 64% |  |  |  |  |  |  |  |
| Cc1c(O)nnc2sc(C(=O)NC3Cc4ccccc4C3)c(N)c12 |  |  |  | 71% |  | 290 nM |  |  |  |  |  |  |  |  |
| Cc1c(CO)nnc2sc(C(=O)NC3CN(c4ncc(C(F)(F)F)cn4)C3)c(N)c12 | inactive | inactive | inactive | 75% | > 30000 nM | 1170 nM |  |  |  |  |  |  |  |  |
| COc1nnc2sc(C(=O)NC3Cc4ccccc4C3)c(N)c2c1C |  |  |  | 83% |  | 20 nM |  |  |  |  |  |  |  |  |
| Cc1c(O)nnc2sc(C(=O)NC3CN(c4ncc(C(F)(F)F)cn4)C3)c(N)c12 | inactive | inactive | inactive | 45% | > 30000 nM | 6720 nM |  |  |  |  |  |  |  |  |
| Cc1c(Cl)nnc2sc(C(=O)NC3CN(c4ccnc(F)c4Cl)C3)c(N)c12 | inactive | inactive | inactive | 72% | > 30000 nM | 70 nM |  |  |  |  |  |  |  |  |
| Cc1cnnc2sc(C(=O)NC3Cc4ccccc4C3)c(N)c12 |  |  |  | 81% |  | 60 nM |  |  |  |  |  |  |  |  |
| Cc1c(Cl)nnc2sc(C(=O)NC3CN(c4ccc(C5CC5)nn4)C3)c(N)c12 | inactive | inactive | inactive | 94% | > 5000 nM | 120 nM | 43% |  |  |  |  |  |  |  |
| COc1cc(N2CC(NC(=O)c3sc4nnc(Cl)c(C)c4c3N)C2)c(Cl)cn1 | inactive | inactive | inactive | 52% | > 30000 nM | 10 nM |  | 0.005 | 0.01 | < 0.001 | 11.7 mL/min/kg | 0.21 | 15.3 mL/min/kg | 0.42 |
| Cc1c(Cl)nnc2sc(C(=O)NC3CN(c4ncc(C(F)(F)F)cn4)C3)c(N)c12 | inactive | inactive | inactive | 78% | > 30000 nM | 60 nM |  | 0.022 | 0.037 | 0.022 |  | 0.1 | 51.9 mL/min/kg | 0.17 |
